Test results as given in PMC10495264 (Nature Cell Biology, 2023).
Values joined by “and” are separate entries in the source; they are usually repeats but may differ in a detail not shown here. Equal values may be shown once.

What was measured:
[1] = system: mTORC2; experiment: mTORC2 activity in HEK293FT cells, p-AKT^S473/AKT immunoblot; assay type: cell-based, human
Protocol: Phosphorylation of Ypk1 was used as the TORC2 readout. Phosphorylation of Snf1 was used as the AMPK activation readout. Total Snf1 was detected with an antibody to a histidine (His) stretch in Snf1. […] Source numerical data and unprocessed blots are provided. Source data
(§1) Amino-acid-starvation experiments were carried out as described before[42],[43]. […] For the lipid depletion experiments, cells were cultured in medium containing 10% charcoal-stripped FBS (A3382101, Thermo Fisher Scientific), instead of full FBS, for 24 h before treatments with FASN inhibitors were performed. For FA supplementation, each FA was first conjugated to 10% FA-free BSA (fraction V; cat. no. 10735086001, Roche) for 1 h at 50 °C in a 50:50 volumetric ratio. The BSA-conjugated C16:0, C16:1, C18:1 and C18:2 FAs (100 μM) were then added to the media both 16 h previous to and at the start of the treatment with FASN inhibitors.
(§2) For standard SDS–PAGE and immunoblotting experiments, cells from a well of a 12-well plate were lysed in 250 μl of ice-cold Triton lysis buffer (50 mM Tris pH 7.5, 1% Triton X-100, 150 mM NaCl, 50 mM NaF, 2 mM Na-vanadate and 0.011 g ml^−1 β-glycerophosphate) supplemented with 1×PhosSTOP phosphatase inhibitors (cat. no. 4906837001, Roche) and 1×cOmplete protease inhibitors (cat. no. 11836153001, Roche) for 10 min on ice. The samples were clarified by centrifugation (20,000g, 15 min, 4 °C) and the supernatants were boiled in 1×SDS sample buffer (5×SDS sample buffer: 350 mM Tris–HCl pH 6.8, 30% glycerol, 600 mM DTT, 12.8% SDS and 0.12% bromophenol blue). The band intensities were quantified using the ImageJ software.

[2] = system: mTORC1; experiment: mTORC1 activity in mouse embryonic fibroblasts (MEFs), p-S6K^T389/S6K immunoblot; assay type: cell-based; conditions: for p-S6K(T389)/S6K, Mean: ED Fig. 4e, relative to DMSO
[3] = system: mTOR lysosomal localization; experiment: Co-localization of mTOR with LAMP2, confocal microscopy; assay type: cell-based, human; conditions: for mTOR/LAMP2 colocalization (Manders' coefficient), Mean: mean of pooled individual cells (ED Fig. 8d), DMSO mean 0.383214
[4] = system: mTORC1; experiment: mTORC1 activity in HEK293FT cells (WT and knockout lines), phosphorylation of S6K, 4E-BP1, Grb10, TFEB by immunoblot; assay type: cell-based, human
Protocol: Data represent the median fluorescence intensity of OPP Alexa Fluor 488; n = 6 biological replicates from two independent experiments. b,c,e,g,i,k,l, Data are the mean ± s.e.m. *P < 0.05, **P < 0.005, ***P < 0.0005. […] Source numerical data and unprocessed blots are provided. Source data
as §1, §2

[5] = system: AMPK; experiment: AMPK and ACC1 phosphorylation immunoblot; assay type: cell-based, human; conditions: relative to DMSO
Protocol: as §2
(§3) Data in graphs are shown as the mean ± s.e.m. *P < 0.05, **P < 0.005. Source numerical data and unprocessed blots are provided. Source data

[6] = system: yeast cells; experiment: Drop spot growth assays on rapamycin and/or cerulenin plates; assay type: cell-based, Saccharomyces cerevisiae; conditions: low / sublethal doses combined
Protocol: Yeast cells (Saccharomyces cerevisiae) were cultured in liquid SC medium (1.7 g l^−1 yeast nitrogen base (cat. no. 1545, CONDA), 5 g l^−1 ammonium sulfate (cat. no. 4808211, MP Biomedicals), 20 g l^−1 glucose (cat. no. 1422, AppliChem), 2 g l^−1 amino acid dropout –His (D9520, US Biological) and 35 mg l^−1 histidine (A1341, AppliChem) at 30 °C to the exponential growth phase, unless otherwise stated in the figure legends. All yeast strains used in this study are listed in Supplementary Table 1.

[7] = biological target: T1, mTORC1 (Homo sapiens, UniProt P42345); experiment: mTORC1 complex stability/composition, mTOR co-immunoprecipitation of Raptor and mLST8; conditions: cells treated with cerulenin (4 h)
T1 construct: endogenous mTORC1 complexes were purified from HEK293FT cells; endogenous in cells; host or cells: HEK293FT (immunoprecipitation of endogenous mTOR); the 4E-BP1 substrate was made in E. coli BL21 RP
Protocol: For the mammalian endogenous protein co-immunoprecipitation experiments, cells of a near-confluent 10-cm dish were lysed in CHAPS IP buffer (50 mM Tris pH 7.5, 0.3% CHAPS detergent, 150 mM NaCl, 50 mM NaF, 2 mM Na-vanadate and 0.011 g ml^−1 β-glycerophosphate) supplemented with 1×PhosSTOP phosphatase inhibitors and 1×EDTA-free cOmplete protease inhibitors (11873580001, Roche) for 10 min on ice. The samples were clarified by centrifugation (20,000g, 15 min, 4 °C) and the supernatants were subjected to immunoprecipitation by the addition of 3 μl of each antibody, incubation at 4 °C with rotation for 3 h, followed by incubation (4 °C with rotation) with 30 μl of a pre-washed Protein A agarose bead slurry (cat. no. 11134515001, Roche) for an additional hour. The beads were then washed four times with CHAPS IP wash buffer (50 mM Tris pH 7.5, 0.3% CHAPS detergent, 150 mM NaCl and 50 mM NaF) and boiled in 1×SDS loading buffer. A portion of the samples was kept aside as the input before the addition of antibodies. The samples were analysed by SDS–PAGE and the presence of co-immunoprecipitated proteins was detected by immunoblotting with the appropriate specific antibodies.
To test whether Mal-CoA influences mTORC1 complex stability/composition, 1 mM Mal-CoA lithium salt solution was added to the lysates before the immunoprecipitation of mTOR, as described earlier. […]

[8] = system: mTORC1; experiment: mTORC1 activity in HEK293T cells (WT, AMPKα1/2 KO, DEPDC5 and RagA/B triple KO), p-S6K^T389/S6K immunoblot; assay type: cell-based, human
Protocol: Source numerical data and unprocessed blots are provided. Source data
as §2
Data in graphs are shown as the mean ± s.e.m. *P < 0.05, **P < 0.005, ***P < 0.0005. Source numerical data and unprocessed blots are provided. Source data

[9] = system: ERK1/2; experiment: ERK1/2 phosphorylation immunoblot; assay type: cell-based, human; conditions: ED Fig. 5m; relative to DMSO
Protocol: as §2, §3

[10] = system: mTORC1; experiment: mTORC1 activity in U2OS cells, immunoblot; assay type: cell-based, human; conditions: Fasnall 25 μM 30 min; cerulenin 50 μM 2 or 4 h
[11] = Fasnall 25 μM 30 min, cerulenin 50 μM 4 h

## C/C=C/C/C=C/CCC(=O)[C@H]1O[C@H]1C(N)=O [cerulenin]
[1]; [11]
  phosphorylation of Akt (mTORC2 substrate): did not significantly alter
[1]; cerulenin 50 μM, 4 h, DMSO = 1, n = 3, Fig. 3d
  p-AKT(S473)/AKT, Mean: 0.8351
[2]; 2h
  p-S6K(T389)/S6K, Mean: 0.8743
[2]; 4h
  p-S6K(T389)/S6K, Mean: 0.3448
[2]; Fasnall 25 μM 30 min, cerulenin 50 μM 2 or 4 h
  mTORC1 activity in MEFs: downregulates
[3]; Ceru 2h, Replicate 1, individual cells (ED Fig. 8d)
  mTOR/LAMP2 colocalization (Manders' coefficient): 0.444 and 0.38 and 0.427 and 0.715 and 0.517 and 0.116 and 0.414 and 0.188 and 0.399 and 0.209 and 0.241 and 0.28 and 0.349 and 0.265 and 0.345 and 0.315 and 0.445 and 0.603 and 0.407 and 0.223 and 0.37 and 0.271 and 0.185
[3]; Ceru 2h, Replicate 3, individual cells (ED Fig. 8d)
  mTOR/LAMP2 colocalization (Manders' coefficient): 0.327 and 0.378 and 0.177 and 0.225 and 0.217 and 0.171 and 0.169 and 0.316 and 0.307 and 0.469 and 0.189 and 0.266 and 0.237 and 0.271 and 0.179 and 0.175 and 0.173 and 0.339
[3]; Ceru 2h
  mTOR/LAMP2 colocalization (Manders' coefficient), Mean: 0.3276
[3]; Ceru 4h, Replicate 1, individual cells (ED Fig. 8d)
  mTOR/LAMP2 colocalization (Manders' coefficient): 0.295 and 0.311 and 0.327 and 0.333 and 0.217 and 0.408 and 0.17 and 0.428 and 0.395 and 0.227 and 0.135 and 0.322 and 0.371 and 0.272 and 0.219 and 0.26 and 0.303
[3]; Ceru 4h, Replicate 3, individual cells (ED Fig. 8d)
  mTOR/LAMP2 colocalization (Manders' coefficient): 0.327 and 0.378 and 0.177 and 0.225 and 0.217 and 0.171 and 0.169 and 0.316 and 0.307 and 0.469 and 0.189 and 0.266 and 0.237 and 0.271 and 0.179 and 0.175 and 0.173 and 0.339
[3]; Ceru 4h
  mTOR/LAMP2 colocalization (Manders' coefficient), Mean: 0.2619
[3]; HEK293FT, 25 μM Fasnall or 50 μM cerulenin
  mTOR localization at lysosomes (co-localization with LAMP2): significant dissociation
[4]; ED Fig. 3e, relative to DMSO
  p-Grb10(S476)/Grb10, Mean: 0.6323
[4]; ED Fig. 3f, relative to DMSO
  p-TFEB(S211)/TFEB, Mean: 0.6501
[4]; ED Fig. 3g, relative to DMSO
  p-4E-BP1(T37/46)/4E-BP1, Mean: 0.1632
[4]; ED Fig. 6b, relative to Luc
  p-S6K(T389)/S6K, Mean: 0.5038
[4]; [11]
  mTORC1 activity towards Grb10 and TFEB (cerulenin: also 4E-BP1): downregulates
[4]; HEK293FT cells, Fasnall, cerulenin or siFASN
  mTORC1 activity (phosphorylation of S6K, 4E-BP1, Grb10 and TFEB): suppressed
[4]; HEK293FT, 50 μM cerulenin 2h, DMSO = 1, n = 8, Fig. 2i
  p-S6K(T389)/S6K, Mean: 0.7401
[4]; HEK293FT, 50 μM cerulenin 4h, DMSO = 1, n = 8, Fig. 2i
  p-S6K(T389)/S6K, Mean: 0.4346
[4]; TSC1 KO HEK293FT, cerulenin 50 μM, 4 h, respective DMSO = 1, n = 3, Fig. 5p
  p-S6K(T389)/S6K, Mean: 0.4527
[4]; WT HEK293FT, cerulenin 50 μM, 4 h, respective DMSO = 1, n = 3, Fig. 5p
  p-S6K(T389)/S6K, Mean: 0.3623
[5]; ED Fig. 5e
  p-AMPK(T172)/AMPK, Mean: 0.8121
[5]; ED Fig. 5f
  p-ACC1(S79)/ACC1, Mean: 1.111
[6]
  combined effect of rapamycin and cerulenin on yeast growth: additive effect
[7]
  stability and composition of mTORC1: not affected
[8]; ED Fig. 7c, AMPKa1/2 KO, 2h, relative to AMPKa1/2 KO DMSO
  p-S6K(T389)/S6K, Mean: 0.7893
[8]; ED Fig. 7c, AMPKa1/2 KO, 4h, relative to AMPKa1/2 KO DMSO
  p-S6K(T389)/S6K, Mean: 0.6235
[8]; ED Fig. 7c, WT, 2h, relative to WT DMSO
  p-S6K(T389)/S6K, Mean: 0.7439
[8]; ED Fig. 7c, WT, 4h, relative to WT DMSO
  p-S6K(T389)/S6K, Mean: 0.528
[8]; ED Fig. 7h, DEPDC5+RagA/B KO, 2h, relative to DEPDC5+RagA/B KO DMSO
  p-S6K(T389)/S6K, Mean: 0.6252
[8]; ED Fig. 7h, DEPDC5+RagA/B KO, 4h, relative to DEPDC5+RagA/B KO DMSO
  p-S6K(T389)/S6K, Mean: 0.4969
[8]; ED Fig. 7h, WT, 2h, relative to WT DMSO
  p-S6K(T389)/S6K, Mean: 0.7136
[8]; ED Fig. 7h, WT, 4h, relative to WT DMSO
  p-S6K(T389)/S6K, Mean: 0.5404
[9]
  p-ERK(T202/Y204)/ERK, Mean: 1.697
[10]
  mTORC1 activity in U2OS: downregulates
